Laboratory results published in ChEMBL document CHEMBL5393456, “Dichlorophenol hsd17b13 inhibitors and uses thereof” (2022).

What follows are compounds tested against T1, 17-beta-hydroxysteroid dehydrogenase 13 (Homo sapiens, UniProt Q7Z5P4) (assay: Inhibition of His-tagged HSD17B13 (unknown origin) expressed in Escherichia coli using estradiol as substrate incubated for 2 hrs and measured by LC/MS estrone detection assay).
T1 sequence (Q7Z5P4 whole entry): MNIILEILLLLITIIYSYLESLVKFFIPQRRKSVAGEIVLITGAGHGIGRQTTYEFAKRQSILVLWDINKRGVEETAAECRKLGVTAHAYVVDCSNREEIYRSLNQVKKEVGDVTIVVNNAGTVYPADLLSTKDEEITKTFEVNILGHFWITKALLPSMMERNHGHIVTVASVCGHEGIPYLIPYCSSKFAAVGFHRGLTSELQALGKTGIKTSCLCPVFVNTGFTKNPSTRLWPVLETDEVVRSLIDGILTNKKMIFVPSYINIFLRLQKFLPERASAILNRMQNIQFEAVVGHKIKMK

Row | SMILES | IC50
1 | CN(C)CCOc1ccc(NC(=O)c2cc(Cl)c(O)c(Cl)c2)c(C(=O)NCc2ccccc2OC(F)(F)F)c1 | > 10000 nM
2 | O=C(NCc1ccccc1OC(F)(F)F)C1CCCN1C(=O)c1cc(Cl)c(O)c(Cl)c1 (stereo not drawn) | > 10000 nM
3 | O=C(Nc1cc(Cl)sc1C(=O)NCCc1ccccc1OC(F)(F)F)c1cc(Cl)c(O)c(Cl)c1 | ≤ 500 nM
4 | NS(=O)(=O)c1ccccc1Cn1cnc2cccc(NC(=O)c3cc(Cl)c(O)c(Cl)c3)c2c1=O | > 10000 nM
5 | O=C(NCc1ccccc1OC(F)(F)F)C1CCCN1C(=O)c1cc(Cl)c(O)c(Cl)n1 (stereo not drawn) | > 10000 nM
6 | Cc1ccc(NC(=O)c2cc(Cl)c(O)c(Cl)n2)c2c(=O)n(Cc3ccccc3OC(F)(F)F)c(C(F)F)nc12 | ≤ 100 nM
7 | O=C(Nc1scnc1C(=O)NCc1cccc(F)c1)c1cc(Cl)c(O)c(Cl)c1 | ≤ 100 nM
8 | O=C(N[C@H]1CCCC[C@@H]1C(=O)NCc1ccccc1OC(F)(F)F)c1cc(Cl)c(O)c(Cl)n1 | > 10000 nM
9 | Cc1nc2c(F)ccc(NC(=O)c3cc(Cl)c(O)c(Cl)c3)c2c(=O)n1Cc1ccccc1OC(F)(F)F | ≤ 100 nM
10 | O=C(Nc1cccc2ncn(Cc3ccccc3-c3ccccn3)c(=O)c12)c1cc(Cl)c(O)c(Cl)c1 | ≤ 500 nM
11 | O=C(Nc1cccc2ncn(Cc3ncccc3Cl)c(=O)c12)c1cc(Cl)c(O)c(Cl)c1 | ≤ 100 nM
12 | O=C(Nc1cccc2ncn(Cc3ccccc3OC(F)(F)F)c(=O)c12)c1cc(Cl)c(O)c(Cl)c1 | ≤ 100 nM
13 | C[C@@H](c1cccc(F)c1)n1cnc2cccc(NC(=O)c3cc(Cl)c(O)c(Cl)c3)c2c1=O | ≤ 100 nM
14 | O=C(Nc1ccc(F)c2ncn(Cc3ccccc3C(F)(F)F)c(=O)c12)c1cc(Cl)c(O)c(Cl)c1 | ≤ 100 nM
15 | O=C(Nc1cccc2ncn(Cc3cccnc3C(F)(F)F)c(=O)c12)c1cc(Cl)c(O)c(Cl)c1 | ≤ 100 nM
16 | O=C(Nc1cccc2ncn(Cc3cccc(C(F)(F)F)c3)c(=O)c12)c1cc(Cl)c(O)c(Cl)c1 | ≤ 100 nM
17 | Cc1nc2c(F)ccc(NC(=O)c3cc(Cl)c(O)c(Cl)c3)c2c(=O)n1Cc1ncccc1C(F)(F)F | ≤ 100 nM
18 | Cn1c(=O)n(Cc2ccccc2OC(F)(F)F)c(=O)c2c(NC(=O)c3cc(Cl)c(O)c(Cl)c3)cccc21 | ≤ 100 nM
19 | Cc1ccc(NC(=O)c2cc(Cl)c(O)c(Cl)c2)c2c(=O)n([C@@H]3CC[C@H]3c3ccccc3)c(C)nc12 | ≤ 100 nM
20 | O=C(Nc1scnc1C(=O)NCc1ccccc1OC(F)(F)F)c1cc(Cl)c(O)c(Cl)n1 | ≤ 100 nM
21 | C[C@@H](c1cccc(F)c1)n1cnc2cccc(NC(=O)c3cc(Cl)c(O)c(Cl)n3)c2c1=O | ≤ 100 nM
22 | Cc1ccc(NC(=O)c2cc(Cl)c(O)c(Cl)c2)c2c(=O)n(Cc3ccccc3C(F)(F)F)c(C(F)F)nc12 | ≤ 100 nM
23 | Cc1ccc(NC(=O)c2cc(Cl)c(O)c(Cl)c2)c2c(=O)n(Cc3ncccc3C(F)(F)F)c(C)nc12 | ≤ 100 nM
24 | O=C(Nc1cccc2ncn(Cc3ncccc3C(F)(F)F)c(=O)c12)c1cc(Cl)c(O)c(Cl)c1 | ≤ 100 nM
25 | Cc1ccc(NC(=O)c2cc(Cl)c(O)c(Cl)c2)c2c(=O)n(Cc3ccccc3C(F)(F)F)c(C)nc12 | ≤ 100 nM
26 | O=C(Nc1cccc2ncn(Cc3ccccc3C(F)(F)F)c(=O)c12)c1cc(Cl)c(O)c(Cl)c1 | ≤ 100 nM
27 | O=C(Nc1cc(Cl)sc1C(=O)NCc1ccccc1OC(F)(F)F)c1cc(Cl)c(O)c(Cl)c1 | ≤ 100 nM
28 | O=C(Nc1cccc2ncn(Cc3ccc(C(F)(F)F)cc3)c(=O)c12)c1cc(Cl)c(O)c(Cl)c1 | ≤ 100 nM
29 | Cc1nc2c(Cl)ccc(NC(=O)c3cc(Cl)c(O)c(Cl)c3)c2c(=O)n1Cc1ccccc1C(F)(F)F | ≤ 100 nM

The remaining lines, values ahead:

Row | IC50 | SMILES
30 | ≤ 100 nM | O=C(Nc1cccc2ncn(Cc3cccc(OC(F)(F)F)c3)c(=O)c12)c1cc(Cl)c(O)c(Cl)c1
31 | ≤ 100 nM | O=C(Nc1cccc2ncn(Cc3ccccc3N3CCOCC3)c(=O)c12)c1cc(Cl)c(O)c(Cl)c1
32 | ≤ 100 nM | [2H]C([2H])([2H])c1nc2c(C)ccc(NC(=O)c3cc(Cl)c(O)c(Cl)c3)c2c(=O)n1Cc1ccccc1OC(F)(F)F
33 | ≤ 100 nM | Cc1ccc(NC(=O)c2cc(Cl)c(O)c(Cl)n2)c2c(=O)n(Cc3ccccc3OC(F)(F)F)c(C)nc12
34 | ≤ 100 nM | Cc1nc2c(F)ccc(NC(=O)c3cc(Cl)c(O)c(Cl)c3)c2c(=O)n1Cc1ccccc1C(F)(F)F
35 | ≤ 100 nM | [2H]C([2H])([2H])c1nc2c(C)ccc(NC(=O)c3cc(Cl)c(O)c(Cl)c3)c2c(=O)n1Cc1ccccc1C(F)(F)F
36 | ≤ 100 nM | O=C(Nc1cccc2ncn(Cc3ccn(-c4ccccc4F)n3)c(=O)c12)c1cc(Cl)c(O)c(Cl)c1
37 | ≤ 100 nM | N#Cc1ccccc1Cn1cnc2cccc(NC(=O)c3cc(Cl)c(O)c(Cl)c3)c2c1=O
38 | ≤ 100 nM | O=C(Nc1cccc2ncn(Cc3ccccc3F)c(=O)c12)c1cc(Cl)c(O)c(Cl)n1
39 | ≤ 100 nM | [2H]C([2H])([2H])c1nc2c(C)ccc(NC(=O)c3cc(Cl)c(O)c(Cl)n3)c2c(=O)n1Cc1ccccc1OC(F)(F)F
40 | ≤ 100 nM | O=C(Nc1ccc(Cl)c2ncn(Cc3ccccc3OC(F)(F)F)c(=O)c12)c1cc(Cl)c(O)c(Cl)c1
41 | ≤ 100 nM | O=C(Nc1cccc2ncn(C3(c4ccccc4F)CC3)c(=O)c12)c1cc(Cl)c(O)c(Cl)c1
42 | ≤ 100 nM | [2H]C([2H])(c1ccccc1C(F)(F)F)n1c(C)nc2c(C)ccc(NC(=O)c3cc(Cl)c(O)c(Cl)c3)c2c1=O
43 | ≤ 100 nM | Cc1ccc(NC(=O)c2cc(Cl)c(O)c(Cl)c2)c2c(=O)n(Cc3ccccc3C(F)(F)F)c(CF)nc12
44 | ≤ 100 nM | C[C@H](c1cccc(F)c1)n1cnc2cccc(NC(=O)c3cc(Cl)c(O)c(Cl)c3)c2c1=O
45 | ≤ 100 nM | Cc1ccc(NC(=O)c2cc(Cl)c(O)c(Cl)c2)c2c(=O)n(Cc3ccccc3OC(F)(F)F)c(C)nc12
46 | ≤ 100 nM | O=C(Nc1cccc2ncn(C(c3ccccc3)c3ccccc3)c(=O)c12)c1cc(Cl)c(O)c(Cl)c1

Row | IC50 | SMILES
47 | ≤ 100 nM | Cc1nc2cccc(NC(=O)c3cc(Cl)c(O)c(Cl)c3)c2c(=O)n1Cc1ccccc1OC(F)(F)F
48 | ≤ 100 nM | Cc1nc2c(F)ccc(NC(=O)c3cc(Cl)c(O)c(Cl)n3)c2c(=O)n1Cc1ccccc1OC(F)(F)F
49 | ≤ 100 nM | O=C(Nc1scnc1C(=O)NCc1ccccc1OC(F)(F)F)c1cc(Cl)c(O)c(Cl)c1
50 | ≤ 100 nM | O=C(Nc1cccc2ncn(Cc3ccccc3C(F)(F)F)c(=O)c12)c1cc(Cl)c(O)c(Cl)n1
51 | ≤ 100 nM | COc1ccccc1CCNC(=O)c1sccc1NC(=O)c1cc(Cl)c(O)c(Cl)c1
52 | ≤ 100 nM | O=C(Nc1ccc(F)c2ncn(Cc3ccccc3C(F)(F)F)c(=O)c12)c1cc(Cl)c(O)c(Cl)n1
53 | ≤ 100 nM | Cc1nsc(NC(=O)c2cc(Cl)c(O)c(Cl)c2)c1C(=O)N[C@@H](C)c1ccccc1F
54 | ≤ 100 nM | Cc1nc2c(F)ccc(NC(=O)c3cc(Cl)c(O)c(Cl)c3)c2c(=O)n1Cc1nn(C)c2ccccc12
55 | ≤ 100 nM | Cc1ccc(NC(=O)c2cc(Cl)c(O)c(Cl)c2)c2c(=O)n(Cc3ccccc3OC(F)(F)F)cnc12
56 | ≤ 100 nM | O=C(Nc1cccc2ncn(Cc3cccc(F)c3)c(=O)c12)c1cc(Cl)c(O)c(Cl)n1
57 | ≤ 100 nM | Cc1nc2nccc(NC(=O)c3cc(Cl)c(O)c(Cl)c3)c2c(=O)n1Cc1ccccc1OC(F)(F)F
58 | ≤ 100 nM | Cc1ccc(NC(=O)c2cc(Cl)c(O)c(Cl)c2)c2c(=O)n(Cc3ccccc3OC(F)(F)F)c(C(F)F)nc12
59 | ≤ 100 nM | Cn1nc(Cn2cnc3cccc(NC(=O)c4cc(Cl)c(O)c(Cl)c4)c3c2=O)c2ccccc21
60 | ≤ 100 nM | O=C(Nc1cccc2ncn(Cc3n[nH]c4ccccc34)c(=O)c12)c1cc(Cl)c(O)c(Cl)c1
61 | ≤ 100 nM | O=C(Nc1scnc1C(=O)NCc1ccccc1C(F)(F)F)c1cc(Cl)c(O)c(Cl)c1
62 | ≤ 100 nM | Cn1nc(CNC(=O)c2ncsc2NC(=O)c2cc(Cl)c(O)c(Cl)c2)c2ccccc21
63 | ≤ 100 nM | O=C(Nc1ccc(F)c2ncn(Cc3ccccc3OC(F)(F)F)c(=O)c12)c1cc(Cl)c(O)c(Cl)c1
